Source: patent US20240360134A1, “PYRAZOLOPYRIMIDINES AND THEIR USES AS PDGFR INHIBITORS” (priority 2021, published 2024)
Like-named read-outs stand apart in the source and are kept apart here.

Key:
[1] = biological target: PDGFRβ (Rattus norvegicus (Rat), UniProt Q05030); test: PDGFRβ Cellular Assay (PDGFRb P-Y751 HTRF, PDGF-BB stimulated A10 cells); type: cell-based
Method: Cell Culture and Preparation: Cells are cultured according to ATCC procedure (5) with the addition of the antibiotic penicillin-streptomycin. If working from frozen, cells should be thawed according to ATCC procedure. Depending on the cell density of frozen vial, cells will need time to recover from thaw. An 80% confluent T75 flask should be enough for one 384 well plate.
Stock Solutions: Rat PDGFBB. A 100 ug/mL stock is prepared by reconstituting 50 ug in 500 μL of 4 mM HCl and 0.1% BSA. It can be stored for a month at 4° C., or aliquoted out and frozen in the −20/−80° C. to avoid multiple free-thaw cycles.
1× Cisbio cell lysis buffer. The cell lysis buffer is diluted 4-fold with molecular grade water. The blocking agent is then diluted 25-fold in the diluted lysis buffer.
Antibody solutions. Equal amounts d2 and cryptate antibody are diluted 20-fold in detection buffer.
Rat PDGFBB. A working stock of 100 ng/mL is created from the stock solution in 10% FBS culture media.
Step 1: Plating Cells: Media from the A10 cell flask is aspirated. The cells are rinsed with PBS and then trypsinized to disperse the cell layer. The cells are then pelleted are resuspended to 1.25e5 cells/mL. […] Plates are covered and placed in the incubator (37° C. 5% CO2) overnight to allow cells to adhere.
Step 2: Compound Dispense: Approximately 18 hours after plating, dispense 40 nL compound onto cells using Echo. […] The plate is returned to the incubator for 3 hours.
After 10 minutes the media is removed by flicking the plate.
Step 4: Cell lysis and antibody addition: 20 uL lysis buffer per well is added to the plate via Tempest. 5 uL antibody solution is added per well via the Tempest. The plate is placed on the shaker at 230 rpm for 1 hour at room temperature.
Step 5: Detection: The plate is read using the HTRF module on the BMG Pherastar. Data is analyzed using Genedata Screener.
IC50 values are determined from a 4-parameter fit, using the following equation: Y=Bottom+(Top−Bottom)/(1+10((Log IC50−X)*Hill slope)), where X=log10 of the compound concentration; top can be defined by PC; bottom defined by NC.

[2] = biological target: VEGFR2, unphosphorylated (Homo sapiens (Human), UniProt P35968); test: VEGFR ADP GLO assay; type: biochemical; settings: 5 nM VEGFR2, 1.2 mM ATP, 1 mg/mL Srctide, 180 min
Chain of VEGFR2, unphosphorylated (P35968 whole entry, looked up): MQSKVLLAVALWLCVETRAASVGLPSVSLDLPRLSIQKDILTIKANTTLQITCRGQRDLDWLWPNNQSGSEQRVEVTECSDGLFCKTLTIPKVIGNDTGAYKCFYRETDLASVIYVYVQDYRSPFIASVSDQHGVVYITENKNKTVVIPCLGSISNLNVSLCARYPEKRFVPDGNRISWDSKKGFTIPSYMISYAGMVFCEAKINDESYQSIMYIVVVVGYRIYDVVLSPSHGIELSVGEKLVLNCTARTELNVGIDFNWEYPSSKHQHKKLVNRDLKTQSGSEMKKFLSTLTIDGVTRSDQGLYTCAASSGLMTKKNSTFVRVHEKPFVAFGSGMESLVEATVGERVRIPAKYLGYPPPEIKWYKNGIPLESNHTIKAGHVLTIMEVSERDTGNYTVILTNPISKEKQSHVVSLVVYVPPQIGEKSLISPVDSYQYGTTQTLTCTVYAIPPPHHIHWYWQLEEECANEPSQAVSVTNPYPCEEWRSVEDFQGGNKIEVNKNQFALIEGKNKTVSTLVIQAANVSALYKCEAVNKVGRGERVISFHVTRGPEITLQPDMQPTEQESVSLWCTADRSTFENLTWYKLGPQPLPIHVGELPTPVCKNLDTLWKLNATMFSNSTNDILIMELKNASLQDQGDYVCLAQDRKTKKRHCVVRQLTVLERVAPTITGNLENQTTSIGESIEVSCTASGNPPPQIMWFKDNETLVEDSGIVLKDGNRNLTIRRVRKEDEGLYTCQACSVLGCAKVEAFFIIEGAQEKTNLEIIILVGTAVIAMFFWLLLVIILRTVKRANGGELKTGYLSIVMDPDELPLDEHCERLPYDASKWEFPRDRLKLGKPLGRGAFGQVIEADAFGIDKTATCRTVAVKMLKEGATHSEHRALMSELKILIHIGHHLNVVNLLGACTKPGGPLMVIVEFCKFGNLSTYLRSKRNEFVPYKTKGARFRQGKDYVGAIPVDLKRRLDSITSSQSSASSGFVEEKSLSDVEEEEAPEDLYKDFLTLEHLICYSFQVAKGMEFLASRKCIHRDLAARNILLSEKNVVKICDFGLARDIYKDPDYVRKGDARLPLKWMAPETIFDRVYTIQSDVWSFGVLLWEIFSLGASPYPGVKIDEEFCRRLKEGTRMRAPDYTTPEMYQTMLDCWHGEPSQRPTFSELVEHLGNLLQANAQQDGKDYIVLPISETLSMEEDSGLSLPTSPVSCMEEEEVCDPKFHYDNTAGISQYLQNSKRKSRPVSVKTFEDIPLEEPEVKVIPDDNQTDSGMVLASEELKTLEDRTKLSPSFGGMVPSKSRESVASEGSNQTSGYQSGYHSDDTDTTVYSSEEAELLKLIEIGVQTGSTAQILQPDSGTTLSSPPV
Method: Assay buffer stock contains 50 mM HEPES pH7.5, 10 mM MgCl2, 0.01% Brij-35, and 1 mM EGTA.
Unphosphorylated VEGFR2. 52.6 μM in 50 mM Tris-HCl, pH 8.0, 50 mM NaCl, 5% Glycerol, 0.5 mM TCEP. Store at −80° C. in aliquots.
10 mg/mL srctide solution, prepared in Assay buffer (Assay buffer stock with 2 mM DTT, 0.1% Pluronic F-127, and 0.1 mg/mL ovalbumin). Sonicate 10 mg/ml Srctide solution for 10 minutes and then vacuum filter.
Assay buffer. Add DTT to 2 mM, Pluronic F-127 to 0.1% and ovalbumin to 0.1 mg/mL to Assay buffer stock.
2× kinase solution. Make a working solution of 10 nM unphosphorylated VEGFR2 in Assay buffer. Vacuum filter 2× kinase solution prior to running assay. Keep on ice until use.
2× substrate/ATP solution. Make a working solution of 2 mg/mL srctide and 2.4 mM ATP in Assay buffer. Keep on ice until use.
Step 1. Dispensing inhibitors/controls: Using Echo, dispense 10 nL/well compound serial dilutions in DMSO to columns 1-22 (in 384-well plates) or columns 1-44 (in 1536-well plates). Dilution series=11 pt, 3-fold dilutions. The top compound concentration in the source plate is 4 mM. The top compound concentration in the assay plate is 10 uM. Using Echo, dispense 10 nl/well DMSO to column 23 (in 384-well plates) or columns 45-47 (in 1536-well plates). These wells will serve as negative control wells Using Echo, dispense 10 nl/well 400 uM TAK-593 in DMSO to column 24 (in 384-well plates) or column 48 (in 1536-well plates). The final concentration of TAK-593 in the assay should be 1 uM. These wells will serve as positive control wells.
Step 2. Pre-incubation of inhibitors with kinase: Add 2 μL/well 2× kinase solution. Centrifuge at 1000 rpm for 1 min. Incubate at room temperature for 30 min.
Step 3. Kinase cascade reaction: Add 2 μL/well 2× substrate/ATP solution to initiate kinase reactions. Centrifuge at 1000 rpm for 1 min. Incubate at room temperature for 180 min.
Final concentrations of components in the assay:
Step 4. Quench: Add 2 uL/well ADP Glo Reagent+0.05% CHAPS. Centrifuge at 1000 rpm for 1 min; Incubate at room temperature for one hour.
Step 5. Detection: Add 2 uL/well Kinase Detection Reagent+0.05% CHAPS. Centrifuge at 1000 rpm for 1 min; Incubate at room temperature for 1 hour; Read Luminescence on a plate reader.
% Inhibition: % Inhibition=(NC−sample)/(NC−PC)*100 where NC is the mean of negative control (reactions without inhibitor), and PC is the mean of positive control (1 μM TAK-593).
IC50 values are determined from a 4-parameter fit, using the following equation: Y=Bottom+(Top−Bottom)/(1+10^(Log IC50-X)*Hill Slope), where X=log10 of the compound concentration; top can be defined by PC; bottom defined by NC.

[3] = biological target: His6-TEV-PDGFRβ (557-1016) (Homo sapiens (Human), UniProt P09619); test: PDGFRβ HTRF Assay; type: biochemical; settings: 800 μM ATP, 0.5 μM TK-substrate biotin peptide, 30 min pre-incubation, 3 hours reaction; read-out: PDGFR HTRF IC50
Chain of His6-TEV-PDGFRβ (557-1016) (P09619 whole entry, looked up): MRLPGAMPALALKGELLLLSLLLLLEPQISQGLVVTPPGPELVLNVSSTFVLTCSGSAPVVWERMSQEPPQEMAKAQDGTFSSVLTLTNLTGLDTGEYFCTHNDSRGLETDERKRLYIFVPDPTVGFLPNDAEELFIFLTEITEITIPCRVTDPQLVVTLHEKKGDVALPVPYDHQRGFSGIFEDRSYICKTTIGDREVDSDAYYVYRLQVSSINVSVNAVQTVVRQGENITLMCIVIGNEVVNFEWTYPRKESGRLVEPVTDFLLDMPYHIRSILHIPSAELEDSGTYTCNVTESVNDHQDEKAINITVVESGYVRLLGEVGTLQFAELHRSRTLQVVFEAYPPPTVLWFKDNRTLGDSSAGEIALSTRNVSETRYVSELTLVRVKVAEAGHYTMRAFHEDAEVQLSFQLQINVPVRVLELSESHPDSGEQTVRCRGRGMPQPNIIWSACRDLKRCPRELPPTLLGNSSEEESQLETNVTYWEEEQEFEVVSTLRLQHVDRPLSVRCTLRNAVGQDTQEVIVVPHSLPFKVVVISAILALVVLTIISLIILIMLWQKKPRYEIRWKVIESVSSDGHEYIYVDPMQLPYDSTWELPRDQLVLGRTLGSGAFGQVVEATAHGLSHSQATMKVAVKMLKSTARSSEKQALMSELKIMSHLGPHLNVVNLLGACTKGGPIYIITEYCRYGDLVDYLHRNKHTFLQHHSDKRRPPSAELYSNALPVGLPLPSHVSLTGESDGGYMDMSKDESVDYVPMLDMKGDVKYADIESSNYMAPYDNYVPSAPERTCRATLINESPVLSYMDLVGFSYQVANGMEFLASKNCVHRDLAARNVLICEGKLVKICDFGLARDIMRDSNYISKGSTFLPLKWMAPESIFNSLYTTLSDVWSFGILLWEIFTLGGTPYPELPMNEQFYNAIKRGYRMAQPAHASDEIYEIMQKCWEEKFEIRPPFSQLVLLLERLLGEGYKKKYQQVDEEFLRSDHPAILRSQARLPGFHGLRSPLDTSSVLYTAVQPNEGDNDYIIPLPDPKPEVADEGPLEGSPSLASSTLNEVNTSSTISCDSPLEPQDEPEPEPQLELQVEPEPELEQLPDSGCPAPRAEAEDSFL
Method: Instrumentation: a. Compound liquid handling: LabCyte Echo; b. Reagent liquid handling: Thermo Scientific Multidrop Combi; c. BMG PHERAStar multilabel plate reader.
Protein Reagent: His6-TEV-PDGFRβ Protein Prep prepared at Accelagen.
Assay buffer stock solution, contains 50 mM Hepes, 10 mM MgCl2, 1 mM EGTA, and 0.01% Brij-35, 0.01% ovalbumin, 2 mM DTT at pH 7.5, in molecular biology grade water. Store at room temperature.
Assay buffer. Dilute 5× Kinase buffer 5-fold with molecular biology grade water and add DTT to 2 mM and ovalbumin to 0.1 mg/mL (or 0.01%).
2× protein solution. Make a working solution of […] PDGFRβ in assay buffer. Keep on ice until use to maintain enzyme stability.
2× substrate solution. Make a working solution of 1.6 mM ATP and 1 μM TK-substrate biotin peptide in assay buffer. 3× quench/detection solution.
Step 2. PDGFRβ E+I pre-incubation: Add 2 μL 2× protein solution to columns 1-24 using the Multidrop Combi. Centrifuge at 1000 rpm for 1 min. Incubate 30 min at RT
Step 2. Enzymatic reaction: Add 2 μL substrate solution to columns 1-24 to initiate the reaction using the Multidrop Combi; cover/seal the assay plate to reduce evaporation. Centrifuge at 1000 rpm for 1 min. Incubate at room temperature for 3 hours.
Final concentrations of components in PDGFRp cascade assay:
0.5 μM TK-substrate biotin peptide
Step 3. Quench/Detection: Add 2 μl 3× quench/detection solution to columns 1-24 using the Multidrop Combi; cover/seal the plate. Centrifuge 1 min 1000 rpm. Incubate at RT for 60 min.
HTRF ratio values calculated by the instrument (Ratio is acceptor counts/donor counts*10,000) is exported from the plate reader and used in data analysis. The exported data will be used to calculate 1) compound activity and 2) assay statistics. […] Assay statistics can include Robust Z′ and Signal to Background.
% Inhibition Calculation: Percent inhibition will be calculated for sample wells based on the equation: […]
IC50 Calculation: For IC50 determination, full 11-point dose response data will be processed using the following equation: […]

[4] = biological target: Tb-labeled inactive PDGFRβ (Homo sapiens (Human), UniProt P09619); test: biochemical; type: binding; settings: read-out: PDGFR Lantha IC50
Chain of Tb-labeled inactive PDGFRβ (P09619 whole entry, looked up): as above

Chain of PDGFRβ (Q05030 whole entry, looked up): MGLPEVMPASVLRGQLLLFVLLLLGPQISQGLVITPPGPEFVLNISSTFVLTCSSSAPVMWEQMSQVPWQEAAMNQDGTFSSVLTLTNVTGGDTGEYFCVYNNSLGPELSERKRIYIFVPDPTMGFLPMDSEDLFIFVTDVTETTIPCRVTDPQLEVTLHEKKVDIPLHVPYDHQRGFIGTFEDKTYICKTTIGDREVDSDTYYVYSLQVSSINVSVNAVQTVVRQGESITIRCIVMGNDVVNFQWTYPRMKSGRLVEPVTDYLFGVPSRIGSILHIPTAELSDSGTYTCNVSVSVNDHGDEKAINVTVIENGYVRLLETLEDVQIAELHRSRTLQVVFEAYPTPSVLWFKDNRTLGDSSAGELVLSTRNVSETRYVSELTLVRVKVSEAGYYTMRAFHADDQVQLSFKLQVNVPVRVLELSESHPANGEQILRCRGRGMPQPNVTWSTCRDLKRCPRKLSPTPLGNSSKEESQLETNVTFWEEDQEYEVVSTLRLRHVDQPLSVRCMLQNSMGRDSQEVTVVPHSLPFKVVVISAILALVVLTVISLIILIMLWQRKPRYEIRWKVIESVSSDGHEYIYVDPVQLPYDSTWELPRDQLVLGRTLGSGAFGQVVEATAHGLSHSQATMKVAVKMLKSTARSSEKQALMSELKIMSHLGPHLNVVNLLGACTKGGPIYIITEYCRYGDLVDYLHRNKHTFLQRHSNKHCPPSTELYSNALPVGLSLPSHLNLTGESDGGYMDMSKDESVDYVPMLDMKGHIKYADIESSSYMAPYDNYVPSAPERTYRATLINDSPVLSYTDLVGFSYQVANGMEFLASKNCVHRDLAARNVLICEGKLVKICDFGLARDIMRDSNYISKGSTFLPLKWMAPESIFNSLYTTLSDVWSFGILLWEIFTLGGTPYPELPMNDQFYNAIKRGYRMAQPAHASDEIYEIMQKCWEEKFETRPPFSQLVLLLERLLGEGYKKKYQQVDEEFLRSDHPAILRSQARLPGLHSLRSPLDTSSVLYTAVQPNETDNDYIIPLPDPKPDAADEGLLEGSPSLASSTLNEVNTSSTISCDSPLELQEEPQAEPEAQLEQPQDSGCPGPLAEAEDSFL

Compound | IC50 ([1]; A10 cells, 3 hours compound, 15 ng/mL PDGFbb for 10 minutes, read-out: PDGFR Cellular IC50) [µM] | IC50 [2] [µM] | IC50 [1] [µM] | IC50 [3] [µM] | IC50 [4] [µM]
Cc1ncc(C(=O)NCCN2CC[C@@H](C)C2)cc1Nc1nn(C)c2nc(Nc3cncnc3)ncc12 [Example 59, (R)-6-methyl-5-((1-methyl-6-(pyrimidin-5-ylamino)-1H pyrazolo-[3,4-d]pyrimidin-3-yl)amino)-N-(2-(3-methylpyrrolidin-1-yl)ethyl)nicotinamide] | 0.19 | > 7.5 |  |  | 
Cc1ncc(C(=O)NCCN2CCC3(CC2)COC3)cc1Nc1nn(C)c2nc(Nc3cnn(C)c3)ncc12 [Example 20, N-(2-(2-oxa-7-azaspiro[3.5]nonan-7-yl)ethyl)-6-methyl-5-((1-methyl-6-((1-methyl-1H-pyrazol-4-yl)amino)-1H-pyrazolo[3,4-d]pyrimidin-3-yl)amino)nicotinamide] |  | > 7.5 | 0.168 |  | 
Cc1ncc(C(=O)NCCN2CCOC3(CC3)C2)cc1Nc1nn(C)c2nc(Nc3cnn(C)c3)ncc12 [Example 54, N-(2-(4-oxa-7-azaspiro[2.5]octan-7-yl)ethyl)-6-methyl-5-((1-methyl-6-((1-methyl-1H-pyrazol-4-yl)amino)-1H-pyrazolo[3,4-d]pyrimidin-3-yl)amino)nicotinamide] |  | 4.73 | 0.0363 |  | 
Cn1nc(Nc2cc(C(=O)NCCN3CCCC3(C)C)ccc2F)c2cnc(Nc3ccnnc3)nc21 [Example 50, N-(2-(2,2-dimethylpyrrolidin-1-yl)ethyl)-4-fluoro-3-((1-methyl-6-(pyridazin-4-ylamino)-1H-pyrazolo[3,4-d]pyrimidin-3-yl)amino)benzamide] |  | > 7.5 | 0.0458 |  | 
Cc1ncc(C(=O)NCCN2CCOCC23CC3)cc1Nc1nn(C)c2nc(Nc3cnn(C)c3)ncc12 [Example 24, N-(2-(7-oxa-4-azaspiro[2.5]octan-4-yl)ethyl)-6-methyl-5-((1-methyl-6-((1-methyl-1H-pyrazol-4-yl)amino)-1H-pyrazolo[3,4-d]pyrimidin-3-yl)amino)nicotinamide] |  | > 7.5 | 0.0221 |  | 
Cc1ncc(C(=O)NCCN2CCCC23CC3)cc1Nc1nn(C)c2nc(Nc3cnn(C)c3)ncc12 [Example 53, N-(2-(4-azaspiro[2.4]heptan-4-yl)ethyl)-6-methyl-5-((1-methyl-6-((1-methyl-1H-pyrazol-4-yl)amino)-1H-pyrazolo[3,4-d]pyrimidin-3-yl)amino)nicotinamide] |  | 4.27 | 0.0062 |  | 
Cc1ncc(C(=O)NCCN2CCS(=O)(=O)CC2)cc1Nc1nn(C)c2nc(Nc3cnn(C)c3)ncc12 [Example 23, N-(2-(1,1-dioxidothiomorpholino)ethyl)-6-methyl-5-((1-methyl-6-((1-methyl-1H-pyrazol-4-yl)amino)-1H-pyrazolo[3,4-d]pyrimidin-3-yl)amino)nicotinamide] |  | > 7.5 | 0.294 |  | 
COC1CCN(CCNC(=O)c2cnc(C)c(Nc3nn(C)c4nc(Nc5cnn(C)c5)ncc34)c2)CC1 [Example 22, N-(2-(4-methoxypiperidin-1-yl)ethyl)-6-methyl-5-((1-methyl-6-((1-methyl-1H-pyrazol-4-yl)amino)-1H-pyrazolo[3,4-d]pyrimidin-3-yl)amino)nicotinamide] |  | > 7.5 | 0.0887 |  | 
Cc1ncc(C(=O)NCCN(C)C2CCOCC2)cc1Nc1nn(C)c2nc(Nc3cnn(C)c3)ncc12 [Example 21, 6-methyl-N-(2-(methyl(tetrahydro-2H-pyran-4-yl)amino)ethyl)-5-((1-methyl-6-((1-methyl-1H-pyrazol-4-yl)amino)-1H-pyrazolo[3,4-d]pyrimidin-3-yl)amino)nicotinamide] |  | > 7.5 | 0.0663 |  | 
Cc1ncc(C(=O)NCCN2CC3COCC3C2)cc1Nc1nn(C)c2nc(Nc3cnn(C)c3)ncc12 (stereo not shown) [Example 26, 6-methyl-5-((1-methyl-6-((1-methyl-1H-pyrazol-4-yl)amino)-1H-pyrazolo[3,4-d]pyrimidin-3-yl)amino)-N-(2-(tetrahydro-1H-furo[3,4-c]pyrrol-5(3H)-yl)ethyl)nicotinamide] |  | > 7.5 | 0.0925 |  | 
Cc1ncc(C(=O)NCCN2CC[C@H](C)C2)cc1Nc1nn(C)c2nc(Nc3cncnc3)ncc12 [Example 12, (S)-6-methyl-5-((1-methyl-6-(pyrimidin-5-ylamino)-1H-pyrazolo[3,4-d]pyrimidin-3-yl)amino)-N-(2-(3-methylpyrrolidin-1-yl)ethyl)nicotinamide] |  | > 7.5 | 0.11 |  | 
Cc1ncc(C(=O)NCCN2CCCC2(C)C)cc1Nc1nn(C)c2nc(NC3CCS(=O)(=O)CC3)ncc12 [Example 45, N-(2-(2,2-dimethylpyrrolidin-1-yl)ethyl)-5-((6-((1,1-dioxido-tetrahydro-2H-thiopyran-4-yl)amino)-1-methyl-1H-pyrazolo[3,4-d]pyrimidin-3-yl)amino)-6-methylnicotinamide] |  | > 10 |  | 0.051 | 1.64
